Results published in patent US9616062B2, “Cyclin dependent kinase inhibitors and methods of use” (priority 2009, dated 2017).

Key:
[1] = system: irradiated (6.5 Gy) wild type mice (FVB/n); assay: Myelosuppression assay: complete blood counts after sub-lethal irradiation, with or without erythropoietin; type: in vivo, mouse; settings: PD0332991 150 mg/kg oral gavage just prior to irradiation, EPO at 72, 96, 120 h post-irradiation, day 17
Experimental: FIG. 1: CDK4/6 inhibition potentiates the efficacy of erythropoietin-mediated recovery of the erythroid cell lineage following DNA damage. Cohorts (8 mice per cohort) of irradiated (6.5 Gy) wild type mice (FVB/n) are given placebo, erythropoietin (EPO), a CDK4/6 inhibitor (PD0332991), or a combination of CDK4/6 inhibitor and EPO (PD0332991+EPO). Serial blood draws are performed at day 17 after treatment and complete blood counts assessed to determine the number of red blood cells, various leukocytes subpopulations, and platelets. The effect of treatment on platelets is shown in the panel on the upper left, red blood cells (RBC) in the panel on the upper right, hemoglobin (Hb) in the panel on the lower left, and hematocrit (HCT) in the panel on the lower right. Error bars represent +/−SEM. […]
Baseline complete blood cell (CBC) anaylsis was performed on a subset of mice prior to drug administration. […] Blood was analyzed using a Hemavet CBC-Diff Veterinary Hematology System (Drew Scientific Inc., Dallas, Tex., United States of America). […]
Cohorts of FVB wild type mice were given placebo or CDK4/6 inhibitor (PD0332991, 150 mg/kg oral gavage) just prior to receiving a sub-lethal dose of irradiation (6.5 Gcy). […] Complete blood counts (CBCs) were assessed to determine the number of red blood cells, various leukocytes subpopulations and platelets.

[2] = system: primary human renal proximal tubule epithelial cells; assay: Cell proliferation, CellTiter-Glo, 72 hours; type: cell-based; settings: 0, 10 nM-3 μM, 72 hours post exposure
Experimental: FIG. 3: CDK4/6 inhibition blocks proliferation of primary human renal proximal tubule epithelial cells. Cells were treated with varying concentrations of PD0332991 for 72 hours. Following incubation, cell proliferation was quantified using CellTiter-Glo® (Promega, Madison, Wis., United States of America). Data represent the mean of four replicates (relative light units, RLU) +/−standard deviation.
Primary normal human renal proximal epithelial cells (American Type Culture Collection (ATCC), Manassas, Va., United States of America) were cultured in renal epithelial cell basal media supplemented with renal epithelial cell growth kit according to the manufacturer's recommendations. […] For the γH2AX assay, cells were fixed, permeabilized, and stained with anti-γH2AX as per γH2AX Flow Kit (Millipore, Billerica, Mass., United States of America). γH2AX levels were assessed by flow cytometry. Cell proliferation was assessed by seeding 1×10^3 cells per well in a 96-well tissue culture plate in 100 μL of growth medium. […] At the end of the recovery period, cell number was quantified using CellTiter-Glo® (Promega, Fitchburg, Wis., United States of America) or WST-1 reagent (TaKaRa Bio USA, Madison, Wis., United States of America). […] 100 μL of TOXILIGHT™ reagent is added and incubated for 5 minutes and read in a luminometer at 1 second/well. […]

[3] = system: germinal center formation; assay: Germinal center formation in mice (Ki67 immunohistochemistry); type: in vivo, mouse; settings: 150 mg/kg by oral gavage
Experimental: Mice were treated with PD0332991 (150 mg/kg by oral gavage). Germinal center formation was assessed by Ki67 immunohistochemistry.
Acute, pharmacologic inhibition of CDK4/6 suppresses lymphocyte proliferation with the most pronounced effect on memory T cell homeostatic proliferation and germinal center formation in mice. To determine whether inhibiting CDK4/6 affects memory cell generation and maintenance, mice were treated with selective CDK4/6 inhibitors, PD 0332991 or an unrelated selective CDK4/6 inhibitor, 2BrIC. 2BrIC was synthesized by OTAVA Chemicals (Kiev, Ukraine) and can be prepared according to methods described in Zhu et al., J. Med. Chem. 46, 2027-2030 (2003).
Cohorts of wild type mice were treated with vehicle or a CDK4/6 inhibitor as in FIG. 11. […] Unstimulated mice were treated for 24 hours with PD0332991 and homeostatic B cell proliferation measured by Ki67 staining after appropriate sorting. Similar results were obtained using BrdU incorporation to measure splenic B cell proliferation. Similar experiments were undertaken in human cells with B cell receptor stimulation as described in FIG. 12.

For CC(=O)c1c(C)c2cnc(Nc3ccc(N4CCNCC4)cn3)nc2n(C2CCCC2)c1=O [PD0332991, 6-acetyl-8-cyclopentyl-5-methyl-2-(5-piperazin-1-yl-pyridin-2-ylamino)-8H-pyrido-[2,3-d]-pyrimidin-7-one], the “platelet counts (CBC)” value [1] was “improved platelet counts”, the “inhibition of cell proliferation vs DMSO control” value [2] was “clear dose dependent inhibition of cell proliferation” and the “germinal center formation (Ki67)” value [3] was “selectively suppresses germinal center formation”.
